Test results reported in patent publication US20250082760A1 (priority 2020, published 2025).
Counter-ions that a name gives are not always drawn.

Key:
[1] = system: nitroglycerin-induced migraine mouse model; assay: nitroglycerin-induced migraine mouse model (hot plate, head scratching, body weight); type: in vivo, ICR mice; conditions: for hind feet licking time (hot plate) / total number of head scratching times: reference model group, day 5; for hind feet licking time (hot plate): 45 min after modeling, p<0.05
Description: 48 ICR mice weigt 18-22 g, half male and half female; purchased from Qinglongshan Animal Breeding Farm, Jiangning District, Nanjing City, certificate: SCXK (Su) 2017-0001; rearing conditions: room temperature 18-20° C., same sex rearing in separate cages, 12 hours of light, regular ventilation, conventional full-price solid feed feeding, bedding changed every two days; 48 mice were randomly divided into 6 groups (blank control group, model group, positive drug group, low-dose group of test drug, medium-dose group of test drug, high-dose group of test drug), 8 animals (4♀4) in each group, marked No. 1-8 with picric acid respectively.
Solvent: 0.5% CMC-Na aqueous solution; positive drug: flunarizine hydrochloride (sibelin) capsules (specification 5 mg), take the contents in a mortar, add 100 ml of 0.5% CMC-Na solution while grinding, placed in EP tubes for standby; Test drug (compound 5): dissolve into 5, 10, 20 mg/ml solutions with distilled water respectively, and placed in EP tubes for standby; Modeling drug (nitroglycerin): take 2 nitroglycerin tablets (specification 5 mg), crushed into powder, placed in EP tubes, added 500 μl of propylene glycol with a pipette and shaken well, standing still for 5 minutes, added 9.5 ml of normal saline, shaken well and standing still overnight, take the supernatant (containing nitroglycerin) 1 mg/ml) for use.
Except for the first group (blank control group), animals in other groups were subcutaneously injected with 10 mg/kg (0.2 ml/20 g) of nitroglycerin back-up solution 1 h after each administration (modeling once every other day on the 1st, 3rd, and 5th days).
The first group was the blank control group, which was given 0.5% CMC-Na 0.2 ml/20 g by gavage; the second group was the model group, which was given 0.5% CMC-Na by gavage; the third group was the positive drug group, which was given by gavage Flunarizine hydrochloride (sibilin) 1 mg/kg; the fourth group was the low-dose group of test drug, which was given 100 mg/kg of compound 5 by gavage; the fifth group was the medium-dose group of test drug, which was given 200 mg/kg of compound 5 by gavage; the sixth group was the high-dose group of test drug, which was given 400 mg/kg of compound 5 by gavage. Dosing every other day on days 1, 3, and 5.
In behavioral studies, mice scratching their heads for more than 5 times or scratching their faces with forelimbs for more than 5 times were identified as migraine-related behaviors caused by modeling, with a record of scratching their heads once; in the hot plate method, mice lifted their hind limbs and licked their hind feet as the observation indicator, record the time immediately.

[2] = system: convulsions in mice induced by electrical stimulation; assay: anticonvulsant effect on mice induced by electrical stimulation; type: in vivo; conditions: compared with blank group
Description: (1) Divide 40 mice (20♀20) into 5 groups at random, with 8 mice (4♀4) in each group, and label No. 1 to No. 8 with picric acid respectively; (2) All mice were tested according to the order of groups and labels electrical stimulation, the initial voltage was 40V, the voltage was increased by 2.5V each time, the time interval between two electrical stimulations for the same mouse was 20 min, the threshold voltage value of convulsion and the time from convulsion to complete recovery were recorded, and the dead mice were discarded, qualified mice were screened; (3) After screening, 7 mice (2♀5) in the 40 mice could not recover after convulsions and died, and the remaining 33 qualified mice […]; (4) From standby 7 mice were screened out as a supplement, and the number of the dead mice in step (2) was marked with picric acid and added to the corresponding groups, so that a total of 40 (20♀20) qualified mice in 5 groups were finally obtained., all mice were weighed and recorded.
Positive drug: sodium valproate (specification 0.2 g), take 1 tablet in a mortar, add 20 ml of 0.5% CMC-Na solution while grinding, to a suspended state, set EP tube for use; test drug (compound 5): Dissolve in distilled water to 5, 10, and 20 mg/ml solutions, respectively, and set EP tubes for later use.
Electrical stimulation was performed 1.5 hours after the last administration, and each mouse was given the threshold voltage measured before to observe the experimental phenomenon and record whether there was convulsions and death occurred.
The first group was the blank control group, which was given 0.4 ml/20 g of 0.5% CMC-Na by gavage; the second group was the positive drug control group, which was given sodium valproate 200 mg/kg by gavage; the third group was the test drug the low-dose group, which was given 100 mg/kg of compound 5 by gavage; the fourth group was the test drug medium-dose group, which was given 200 mg/kg of compound 5 by gavage; the fifth group was the test drug high-dose group, which was given 400 mg/kg of compound 5 by gavage.
1.5 h after the last administration, electrical stimulation was performed according to the threshold voltage measured before each mouse, the experimental phenomenon was observed, and the occurrence of convulsions and death were recorded. If convulsion occurs, record the time of complete recovery; if no convulsion occurs, continue to increase the voltage with a gradient of 2.5V to measure the current threshold voltage value and recovery time.
Strictly follow the 5 periods of convulsion in mice, namely, latency period, rigid flexion period, hindlimb extension period, clonic period and recovery period to judge whether the mice have convulsions after electrical stimulation, and the phenomenon of death can not be recovered after convulsions.

CC(C)c1cccc(C(C)C)c1OC(=O)CC1(CN(C)C)CCCCC1 [Compound 5, 2,6-diisopropylphenyl 2-(1-((dimethylamino)methyl)cyclohexyl)acetate hydrochloride]
alleviation of nitroglycerin-induced migraine in mice ([1]; by gavage on days 1, 3, 5, compound 5 100, 200, 400 mg/kg): effectively alleviate
weight gain of mice ([1]; mouse, in vivo): no significant effect
hind feet licking time (hot plate) ([1]; high dose 400 mg/kg gavage): significant difference
total number of head scratching times ([1]; high dose 400 mg/kg gavage): significant difference (p<0.05)
total number of head scratching times ([1]; low dose 100 mg/kg gavage): extremely significant (p<0.01)
total number of head scratching times ([1]; medium dose 200 mg/kg gavage): extremely significant (p<0.01)
hind feet licking time (hot plate) ([1]; middle dose 200 mg/kg gavage): significant difference
anti-electrical convulsion ability (threshold voltage increase) ([2]; 100 mg/kg gavage, p>0.05): no significant effect
anti-electrical convulsion ability (threshold voltage increase) ([2]; 200 mg/kg gavage, p>0.05): no significant effect
anti-electrical convulsion ability (threshold voltage increase) ([2]; 400 mg/kg gavage, p<0.01): significantly improve
weight gain of mice ([2]; sodium valproate 200 mg/kg, compound 5 100, 200, 400 mg/kg gavage, p>0.05): no difference
